In patent publication US20210177880A1, “METHODS AND COMPOSITIONS FOR TREATING ACUTE MYELOID LEUKEMIA” (President and Fellows of Harvard College, priority 2017, published 2021):

Assays:
[1] = Tolerability of daily DON injections in mice carrying AML; type: in vivo, mouse; conditions: daily injections extended for more than 5 days
Description: (§1) To confirm that glutamine metabolism plays a functional role in protecting AML cells from chemotherapy, human AML cells (THP1) were treated in culture with iCT in combination with 6-diazo-5-oxo-L-norleucine (DON), a glutamine analog and antagonist that inhibits all glutamine-dependent enzymes (FIG. 5C). […] Mice carrying AML were then treated in combination with DON at different regimens (FIG. 5D).

THP1 human AML cell line = test: Viability of human AML cells (THP1) treated in culture with iCT in combination with DON; type: cell-based; conditions: different doses of iCT (cytarabine+doxorubicin) in combination with DON, 72 h in vitro, FIG. 5A
Description: Arrows show the range where synergism occurs. […] FIG. 5C provides the chemical structure of glutamine and 6-diazo-5-oxo-L-norleucine (DON). FIGS. 5D-5E show survival of AML-bearing mice treated with iCT (days 7-11) with or without short term 6-diazo-5-oxo-L-norleucine (DON; 0.3 mg/kg), showing the treatment schedule (FIG. 5D) and Kaplan-Meier survival curves (FIG. 5E). iCT+DON: both given at same time; iCT+DON^+3: DON started 3 days after first dose of iCT. FIGS. 5F-5G show survival of AML-bearing mice treated with iCT (days 7-11) with or without continuous DON ([…]), showing the treatment schedule (FIG. 5F) and Kaplan-Meier survival curves (FIG. 5G). iCT+DON^post: DON started after last dose of iCT.
as §1

MLL-AF9 AML cells = test: Survival of AML-bearing mice treated with iCT with or without DON; type: in vivo, mouse
Description: Arrows show the range where synergism occurs. […] FIG. 5C provides the chemical structure of glutamine and 6-diazo-5-oxo-L-norleucine (DON). FIGS. 5D-5E show survival of AML-bearing mice treated with iCT (days 7-11) with or without short term 6-diazo-5-oxo-L-norleucine (DON; 0.3 mg/kg), showing the treatment schedule (FIG. 5D) and Kaplan-Meier survival curves (FIG. 5E). iCT+DON: both given at same time; iCT+DON^+3: DON started 3 days after first dose of iCT. […]
To test this hypothesis, a mouse model was used in which cells express MLLAF9, driving leukemia development, luciferase, and GFP. The mouse model allows real-time monitoring of leukemic burden through bioluminescence imaging, and therefore identification of the moment of maximal response to iCT. Bone marrow cells derived from terminally ill primary mice were intravenously transplanted into secondary wildtype recipients, leading to the development of a very aggressive disease that can be monitored in real time since only AML cells express luciferase and GFP. Mice were treated with a chemotherapy regimen that closely mimics the one used in patients (cytarabine for 5 days and doxorubicin for the first 3 days) or vehicle, and followed disease progression using bioluminescence imaging (FIG. 6A). It was discovered that the amount of maximal response occurs 3-4 days after the last dose of chemotherapy (FIG. 6B). This means that at this moment, after the selection pressure of chemotherapy, massive neighboring cell death, and possibly other stress factors such as niche alteration, certain cells have adapted and are now started to grow again.
as §1

[N-]=[N+]=CC(=O)CC[C@H](N)C(=O)O [DON, 6-diazo-5-oxo-L-norleucine]
lethality of daily DON injections [1]: proved lethal
interaction of iCT and DON on viability of THP1 cells (THP1 human AML cell line): synergy at several doses
survival of AML-bearing mice, DON given together with iCT, versus iCT alone (MLL-AF9 AML cells; DON 0.3 mg/kg daily for 5 days at the same time as iCT (cytarabine 100 mg/kg 5 days + doxorubicin 3 mg/kg first 3 days), FIG. 5B/5E): did not extend survival
survival of AML-bearing mice, DON short treatment (MLL-AF9 AML cells; DON daily for 5 days at 0.3 mg/kg, FIG. 5B/5E): did not have much effect
interaction between iCT and DON treatment on survival (MLL-AF9 AML cells; DON every other day at 0.3 mg/kg, extended treatment after iCT, FIG. 5G): clear synergism
survival of AML-bearing mice, DON every other day after iCT, versus iCT alone (MLL-AF9 AML cells; DON every other day at 0.3 mg/kg, started after last dose of iCT (iCT+DONpost), p=0.0019, FIG. 5F/5G): increased substantially
survival of AML-bearing mice, DON delayed 3 days after first dose of iCT (MLL-AF9 AML cells; iCT+DON+3: short-term DON 0.3 mg/kg started 3 days after first dose of iCT, spanning the moment of maximal response, FIG. 5E): a clear survival benefit was achieved
